From patent US20150225369A1, “DDR2 INHIBITORS FOR THE TREATMENT OF OSTEOARTHRITIS” (Merck Patent GmbH, priority 2012, published 2015)

Target: T1, His-tagged human recombinant DDR-2 kinase domain (His-TEV-DDR2 467-855 aa) (Homo sapiens, UniProt Q16832)
T1 construct: His-TEV-DDR2 467-855 aa
T1 sequence (Q16832 467-855): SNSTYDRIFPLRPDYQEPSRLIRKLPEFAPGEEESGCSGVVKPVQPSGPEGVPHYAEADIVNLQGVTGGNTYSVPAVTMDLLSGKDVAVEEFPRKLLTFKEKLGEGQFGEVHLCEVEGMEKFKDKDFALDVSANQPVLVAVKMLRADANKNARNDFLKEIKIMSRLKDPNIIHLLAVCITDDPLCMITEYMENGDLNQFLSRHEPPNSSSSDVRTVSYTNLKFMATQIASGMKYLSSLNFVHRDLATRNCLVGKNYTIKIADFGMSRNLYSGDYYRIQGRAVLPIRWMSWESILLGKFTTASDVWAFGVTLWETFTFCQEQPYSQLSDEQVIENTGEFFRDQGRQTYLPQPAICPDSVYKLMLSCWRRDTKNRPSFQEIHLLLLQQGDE
Assay: Autophosphorylation assay for biochemical activity testing of DDR2 (HTRF)
Details: 4 nM DDR2 kinase domain, 150 μM ATP, 150 min at 22° C.
Method: The autophosphorylation assay was run in two steps: the enzymatic reaction in which His-tagged DDR2 with ATP as co-substrate phosphorylates itself and the detection reaction where a time resolved FRET between XL665® labelled anti-6His antibody bound to the His-tag of the enzyme and cryptate labelled anti-phospho-Tyrosine-antibody (PT66) bound the phosphorylated Tyrosine residue of DDR2 was analysed. The autophosphorylation activity was detectable directly via the increase in HTRF signal.
The autophosphorylation assay was performed as 1536 well or 384 well HTRF® (Cisbio, Codolet, France) assay format in Greiner low volume medium binding 384-well microtiter plates and was used for high throughput screen. […] The ratio of the emission signals was determined. The full value used was the inhibitor-free reaction.

Q: For `CNC(=O)c1cc(Oc2ccc(CNC(=O)Nc3cc(C(F)(F)F)cn(Cc4ccccc4)c3=O)cc2)ccn1` [compound 12], which IC50 is on record?
A: 260 nM

Q: `CNC(=O)c1cc(Oc2ccc(CNC(=O)Nc3ncc(C(F)(F)F)cc3Cl)cc2)ccn1` [compound 7] was tested. Which IC50 did it give?
A: 6600 nM

Q: For `CNC(=O)c1cc(Oc2ccc(CNC(=O)Nc3cc(C)ccn3)cc2)ccn1` [compound 14], which IC50 is on record?
A: 570 nM

Q: For `CNC(=O)c1cc(Oc2ccc(COC(=O)Nc3cc(C(F)(F)F)ccn3)cc2C)ccn1` [compound 4], which IC50 is on record?
A: 41 nM

Q: With `Cc1cc(Oc2ccc(CNC(=O)Nc3cnc4ccccc4c3)cc2C)ccn1` [compound 32] as the molecule, how does the IC50 read?
A: 7100 nM

Same assay, conditions: biochemical DDR2 autophosphorylation

Q: With `COc1ccc(OC)c(NC(=O)NCc2ccc(Oc3ccncc3)cc2)c1` [compound 15] as the molecule, how does the IC50 read?
A: 440 nM

Q: `O=C(NCc1ccc(Oc2ccncc2)cc1)Nc1ccc(Cl)cc1` [compound 16] was tested. Which IC50 did it give?
A: 5900 nM

Q: How did the IC50 turn out when `CNC(=O)c1cc(Oc2ccc(CNC(=O)Nc3ccc(Cl)cc3OC)cc2)ccn1` [compound 79, 4-{4-[3-(4-Chloro-2-methoxy-phenyl)-ureidomethyl]-phenoxy}-pyridine-2-carboxylic acid methylamide] was run?
A: 410 nM

Q: With `Cc1ccccc1NC(=O)NCc1ccc(Oc2ccncc2)cc1` [compound 29] as the molecule, how does the IC50 read?
A: ≥ 100000 nM

Q: With `CNC(=O)c1cc(Oc2ccc(CNC(=O)Nc3ccncc3)cc2)ccn1` [compound 90, 4-{4-[(3-Pyridin-4-yl-ureido)-methyl]-phenoxy}-pyridine-2-carboxylic acid methylamide] as the molecule, how does the IC50 read?
A: ≥ 100000 nM

Q: With `Cc1cccc(NC(=O)NCc2ccc(Oc3ccncc3)cc2)c1C` [compound 24] as the molecule, how does the IC50 read?
A: ≥ 100000 nM

Q: How did the IC50 turn out when `CNC(=O)c1cc(Oc2ccc(CNC(=O)Nc3cc(C(F)(F)F)ccc3OC(C)(C)C(N)=O)cc2)ccn1` [compound 199, 4-(4-{3-[2-(1 -Carbamoyl-1-methyl-ethoxy)-5-trifluoromethyl-phenyl]-ureidomethyl}-phenoxy)-pyridine-2-carboxylic acid methylamide] was run?
A: ≥ 100000 nM

Q: With `CNC(=O)c1cc(Oc2ccc(CNC(=O)Nc3cc(C(F)(F)F)ccc3OCCN(C)C)cc2)ccn1` [compound 77, 4-(4-{3-[2-(2-Dimethylamino-ethoxy)-5-trifluoromethyl-phenyl]-ureidomethyl}-phenoxy)-pyridine-2-carboxylic acid methylamide] as the molecule, how does the IC50 read?
A: 78 nM

Q: With `COc1cc(Cl)c(C)cc1NC(=O)NCc1ccc(Oc2ccnc(C(=O)NCCCCCCN)c2)cc1` [compound 126, 4-{4-[3-(4-Chloro-2-methoxy-5-methyl-phenyl)-ureidomethyl]-phenoxy}-pyridine-2-carboxylic acid (6-amino-hexyl)-amide] as the molecule, how does the IC50 read?
A: 150 nM

Q: Which IC50 does the source give for `O=C(NCc1ccc(Oc2ccncc2)cc1)Nc1cccc(Br)c1` [compound 53, 1-(3-Bromo-phenyl)-3-[4-(pyridin-4-yloxy)-benzyl]-urea] here?
A: 56 nM

Q: How did the IC50 turn out when `CNC(=O)c1cc(Oc2ccc(CNC(=O)Nc3cc(C)c(Cl)cc3OCCN3CCCC3)c(C)c2)ccn1` [compound 134, 4-(4-{3-[4-Chloro-5-methyl-2-(2-pyrrolidin-1-yl-ethoxy)-phenyl]-ureidomethyl}-3-methyl-phenoxy)-pyridine-2-carboxylic acid methylamide] was run?
A: 1200 nM

Q: With `Cc1ccc(C)c(NC(=O)NCc2ccc(Oc3ccncc3)cc2)c1` [compound 25] as the molecule, how does the IC50 read?
A: 13000 nM

Q: With `CNC(=O)c1cc(Oc2ccc(CNC(=O)Nc3cc(C)ccc3OC3CCNCC3)cc2)ccn1` [compound 159, 4-(4-{3-[5-Methyl-2-(piperidin-4-yloxy)-phenyl]-ureidomethyl}-phenoxy)-pyridine-2-carboxylic acid methylamide] as the molecule, how does the IC50 read?
A: 83 nM

Q: `CCN(CC)CCOc1cc(Cl)c(C)cc1NC(=O)NCc1ccc(Oc2ccnc(C(=O)NC)c2)cc1` [compound 117, 4-(4-{3-[4-Chloro-2-(2-diethylamino-ethoxy)-5-methyl-phenyl]-ureidomethyl}-phenoxy)-pyridine-2-carboxylic acid methylamide] was tested. Which IC50 did it give?
A: 425 nM

Q: How did the IC50 turn out when `CNC(=O)c1cc(Oc2ccc(CNC(=O)Nc3cc(C(F)(F)F)c(Cl)cc3OCC(=O)OC)cc2)ccn1` [compound 113, (5-Chloro-2-{3-[4-(2-methylcarbamoyl-pyridin-4-yloxy)-benzyl]-ureido}-4-trifluoromethyl-phenoxy)-acetic acid methyl ester] was run?
A: 57 nM

Q: With `CNC(=O)c1cc(Oc2ccc(CNC(=O)Nc3cc(C)c(Cl)cc3OCCCCN(C)C)cc2C)ccn1` [compound 165, 4-(4-{3-[4-Chloro-2-(4-dimethylamino-butoxy)-5-methyl-phenyl]-ureidomethyl}-2-methyl-phenoxy)-pyridine-2-carboxylic acid methylamide] as the molecule, how does the IC50 read?
A: 210 nM

Q: How did the IC50 turn out when `COc1ccc(Cl)cc1NC(=O)NCc1ccc(Oc2ccncc2)cc1` [compound 32] was run?
A: 87 nM

Q: With `CNC(=O)c1cc(Oc2ccc(CNC(=O)Nc3cc(C)c(Cl)cc3OCCN3CCCC3)cc2C)ccn1` [compound 137, 4-(4-{3-[4-Chloro-5-methyl-2-(2-pyrrolidin-1-yl-ethoxy)-phenyl]-ureidomethyl}-2-methyl-phenoxy)-pyridine-2-carboxylic acid methylamide] as the molecule, how does the IC50 read?
A: 140 nM

Q: With `CNC(=O)c1cc(Oc2ccc(CNC(=O)Nc3cc(C)c(Cl)cc3OC)cc2C)ccn1` [compound 119, 4-{4-[3-(4-Chloro-2-methoxy-5-methyl-phenyl)-ureidomethyl]-2-methyl-phenoxy}-pyridine-2-carboxylic acid methylamide] as the molecule, how does the IC50 read?
A: 210 nM

Q: Which IC50 does the source give for `Cc1cc2nccc(Oc3ccc(CNC(=O)Nc4ccccc4)cc3)c2o1` [compound 249, 1-[4-(2-Methyl-furo[3,2-b]pyridin-7-yloxy)-benzyl]-3-phenyl-urea] here?
A: 650 nM

Q: For `CNC(=O)c1cc(Oc2ccc(CNC(=O)Nc3cc(OC)ccc3OC)cc2)ccn1` [compound 20], which IC50 is on record?
A: 98 nM

Q: `CNC(=O)c1cc(Oc2ccc(CNC(=O)Nc3cc(C(F)(F)F)c(Cl)cc3OCCN)cc2)ccn1` [compound 140, 4-(4-{3-[2-(2-Amino-ethoxy)-4-chloro-5-trifluoromethyl-phenyl]-ureidomethyl}-phenoxy)-pyridine-2-carboxylic acid methylamide] was tested. Which IC50 did it give?
A: 121 nM

Q: `CNC(=O)c1cc(Oc2ccc(CNC(=O)Nc3cc4ccccc4cn3)cc2)ccn1` [compound 96, 4-{4-[(3-Isoquinolin-3-yl-ureido)-methyl]-phenoxy}-pyridine-2-carboxylic acid methylamide] was tested. Which IC50 did it give?
A: 170 nM

Q: Which IC50 does the source give for `CNC(=O)c1cc(Oc2ccc(CNC(=O)Nc3cnc4ccccc4c3)cc2)ccn1` [compound 97, 4-{4-[(3-Quinolin-3-yl-ureido)-methyl]-phenoxy}-pyridine-2-carboxylic acid methylamide] here?
A: 290 nM

Q: For `CC(C)(C)c1ccc(NC(=O)NCc2ccc(Oc3ccncc3)cc2)cc1` [compound 56, 1-(4-tert-Butyl-phenyl)-3-[4-(pyridin-4-yloxy)-benzyl]-urea], which IC50 is on record?
A: 16000 nM

Q: `CNC(=O)c1cc(Oc2ccc(CNC(=O)Nc3cc(C(F)(F)F)c(Cl)cc3OCCN(C)C)cc2C)ccn1` [compound 152, 4-(4-{3-[4-Chloro-2-(2-dimethylamino-ethoxy)-5-trifluoromethyl-phenyl]-ureidomethyl}-2-methyl-phenoxy)-pyridine-2-carboxylic acid methylamide] was tested. Which IC50 did it give?
A: 25 nM

Q: How did the IC50 turn out when `O=C(NCc1ccc(Oc2ccncc2)cc1)Nc1ccc(C(F)(F)F)cc1Cl` [compound 37, 1-(2-Chloro-4-trifluoromethyl-phenyl)-3-[4-(pyridin-4-yloxy)-benzyl]-urea] was run?
A: 2800 nM

Q: How did the IC50 turn out when `O=C(Nc1ccc(Cl)c(C(F)(F)F)c1)NC1(c2ccc(Oc3ccncc3)cc2)CC1` [compound 68, 1-(4-Chloro-3-trifluoromethyl-phenyl)-3-{1-[4-(pyridin-4-yloxy)-phenyl]-cyclopropyl}-urea] was run?
A: 4600 nM

Q: `O=C(NCc1ccc(Oc2ccncc2)cc1)Nc1ccc(Cl)cc1Cl` [compound 5] was tested. Which IC50 did it give?
A: 1400 nM

Q: How did the IC50 turn out when `CSc1cccc(NC(=O)NCc2ccc(Oc3ccncc3)cc2)c1` [compound 34] was run?
A: 5500 nM

Q: With `Cc1ccc(Cl)cc1NC(=O)NCc1ccc(Oc2ccncc2)cc1` [compound 50, 1-(5-Chloro-2-methyl-phenyl)-3-[4-(pyridin-4-yloxy)-benzyl]-urea] as the molecule, how does the IC50 read?
A: 1700 nM

Q: How did the IC50 turn out when `CNC(=O)c1cc(Oc2ccc(CNC(=O)Nc3cc(C)c(Cl)cc3OC)cc2F)ccn1` [compound 218, 4-{4-[3-(4-Chloro-2-methoxy-5-methyl-phenyl)-ureidomethyl]-2-fluoro-phenoxy}-pyridine-2-carboxylic acid methylamide] was run?
A: 150 nM

Q: With `Cc1ccc(NC(=O)NCc2ccc(Oc3ccncc3)cc2)cc1C` [compound 59, 1-(3,4-Dimethyl-phenyl)-3-[4-(pyridin-4-yloxy)-benzyl]-urea] as the molecule, how does the IC50 read?
A: 2100 nM

Q: How did the IC50 turn out when `CNC(=O)c1cc(Oc2ccc(CNC(=O)Nc3cc(C)c(Cl)cc3OCCN3CCNCC3)cc2)ccn1` [compound 120, 4-(4-{3-[4-Chloro-5-methyl-2-(2-piperazin-1-yl-ethoxy)-phenyl]-ureidomethyl}-phenoxy)-pyridine-2-carboxylic acid methylamide] was run?
A: 176 nM

Q: For `Cc1ccc(NC(=O)NCc2ccc(Oc3ccncc3)cc2)c(C)c1` [compound 30], which IC50 is on record?
A: 28000 nM

Q: With `CNC(=O)c1cc(Oc2ccc(CNC(=O)Nc3cccnc3)cc2)ccn1` [compound 88, 4-{4-[(3-Pyridin-3-yl-ureido)-methyl]-phenoxy}-pyridine-2-carboxylic acid methylamide] as the molecule, how does the IC50 read?
A: 15000 nM
